Assay results published in US10869478B2, “Uses of 2-(2,4-dichlorophenyl)methyl-4,4-dimethyl-3-isoxazolidone as foliar herbicide” (Bayer CropScience Aktiengesellschaft, priority 2015, dated 2020).

Columns and labels:
Format in all cases: in vivo
[1] = tested on: Hordeum vulgare; details: Table 2; post emergence application GS29, field trial; 200 g a.i./ha; visual, 0-100% scale vs untreated
Description: (§1) The experiments were conducted as post applied field trials with plot sizes of 11.25-15 qm, an application volume of 250-300 liter water per hectare and two to three repetitions. Seeds of different crops and various monocot and dicot weeds were either sown or the monocot and dicot weeds were grown naturally and established under common field conditions. The evaluation 13-46 days after application was assessed visually. Treated plants were compared to untreated plants (0-100% scale). In the tables below, GS (growth stage) corresponds to BBCH-code (see for reference Lancashire, P. D.; H. Bleiholder; P. Langeluddecke; R. Stauss; T van den Boom; E. Weber; A. Witzen-Berger (1991). “A uniform decimal code for growth stages of crops and weeds”: Ann. Appl. Biol. 119 (3): 561-601; or Witzenberger, A.; H. Hack; T van den Boom (1989): “Erläuterungen zum BBCH-Dezimal-Code für die Entwicklungsstadien des Getreides—mit Abbildungen”. Gesunde pflanzen 41: 384-388; or Zadoks, J. C., Chang, T T & Konzak, C. F. (1974): A decimal code for the growth stages of cereals. Weed Research 14, 415421)
(§2) The generated values from applications alone and in combination were used to evaluate the combinatorial effects according to S. R. Colby, Weeds 15, pages 20 to 22 (1967).
(§3) The abbreviations have the following meaning: • a.i.=active ingredient • E=Observed combination effect value • EC=Calculated combination effect value according to Colby (EC=A+B−A×B/100) • Diff:=Difference (%) between observed and expected combination effect value (%) (observed minus expected value)

[2] = tested on: Triticum aestivum; details: 200 g a.i./ha
Description: as §1, §2, §3

[3] = tested on: Centaurea cyanus; assay: Post-emergence field trial, herbicidal effect; details: post emergence application GS18, field trial
Description: as §1, §2, §3

[4] = tested on: Galium aparine; assay: Post-emergence field trial, herbicidal effect; details: post emergence application GS23, field trial
Description: as §1, §2, §3

[5] = tested on: Papaver rhoeas; assay: Post-emergence field trial, herbicidal effect; details: Table 8; post emergence application GS18, field trial; 50 g a.i./ha
Description: as §1, §2, §3

SMILES: CC1(C)CON(Cc2ccc(Cl)cc2Cl)C1=O [COMPOUND I, 2-(2,4-dichlorophenyl)methyl-4,4-dimethyl-3-isoxazolidone]
- Efficacy/selectivity [%] against Hordeum vulgare [1]: 32%
- Efficacy/selectivity [%] against Triticum aestivum ([2]; Table 1, post emergence application GS30, field trial, visual, 0-100% scale vs untreated): 30%
- Efficacy/selectivty [%] against Triticum aestivum ([2]; Table 3, post emergence application GS29, field trial): 18%
- Efficacy [%] against Centaurea cyanus ([3]; Table 5, 50 g a.i./ha): 25%
- Efficacy [%] against Centaurea cyanus ([3]; Table 6, 50 g a.i./ha): 25%
- Efficacy [%] against Centaurea cyanus ([3]; Table 9, 100 g a.i./ha): 75%
- Efficacy [%] against Galium aparine ([4]; Table 4, 100 g a.i./ha): 25%
- Efficacy [%] against Galium aparine ([4]; Table 7, 100 g a.i./ha): 0%
- Efficacy [%] against Papaver rhoeas [5]: 0%

SMILES: Nc1c([N+](=O)[O-])ccc(Oc2ccccc2)c1Cl [aclonifen, reference compound]
- Efficacy [%] against Centaurea cyanus ([3]; Table 9, 450 g a.i./ha): 0%

SMILES: CCCCCCCC(=O)Oc1c(Br)cc(C#N)cc1Br [bromoxynil AS octanoate, reference compound]
- Efficacy [%] against Galium aparine ([4]; Table 7, 175 g a.i./ha): 10%

SMILES: O=C(Nc1ccc(F)cc1F)c1cccnc1Oc1cccc(C(F)(F)F)c1 [diflufenican, reference compound]
- Efficacy [%] against Centaurea cyanus ([3]; Table 6, 75 g a.i./ha): 0%

SMILES: Nc1c(Cl)c(F)nc(OCC(=O)O)c1Cl [fluroxypyr, reference compound]
- Efficacy [%] against Centaurea cyanus ([3]; Table 5, 150 g a.i./ha): 30%

SMILES: CSc1nnc(C(C)(C)C)c(=O)n1N [metribuzin, reference compound]
- Efficacy [%] against Papaver rhoeas [5]: 0%
